Assay results as given in patent US5994361A, “Substituted purinyl derivatives with immunomodulating activity” (priority 1995, dated 1999).

What was measured:
[1] = test system: T cell activity (ConA), spleen mononuclear leukocytes; test: Mitogenic proliferation on spleen cell suspension, T (ConA); type: cell-based, C57BL-6 mice; conditions: at 10^-8 - 10^-5 (M); 4320 min
Excerpt: Mitogenic lectin (mitogen) is a protein which binds and cross-links specific cells surface carbohydrate determinants, and will polyclonally stimulate lymphoid cells. Lymphocyte activation by either antigens or mitogens results in intracellular changes and the subsequent development into a lymphoblast. Mitogenic stimulation of lymphocytes in vitro is believed to mimic the series of events which occur in vivo following their stimulation by specific antigens. PHA, ConA, and PWM, LPS mitogens can be used as a measurement of T cell and B cell activity, respectively.
Briefly, spleen mononuclear leukocytes from C57BL-6 mice were incubated in the presence or absence of mitogens with or without tested drugs. After 72 hours or 5 days, ^3 H thymidine incorporation was recorded as an indication of cell transformation and proliferation.
100 μl of a suspension of 2×10^6 cells/ml (2×10^5 cells/well) were incubated in presence of PHA or ConA or PWM or LPS at the following concentrations:
PHA=0.01% final concentration-0.001%
Cells were incubated in presence or absence of drugs for 72 hours. 0.5 or 1 μCi of tritiated thymidine (^3 H) was added per well the last 18 or 6 hours of incubation respectively. Cells were harvested and counted on a Beta counter.

[2] = test system: blood cells; test: Immunophenotyping on blood cells of compound #1 treated mice; type: in vivo, C57/BLJ6 mice; design: unit not given here; conditions: N = 10; for CD8+ CD45+ (mean): daily 4 days
Description: (§1) After in vivo drugs analysis, the drugs were evaluated on whole blood for drug stability and toxicity. Furthermore, in vivo/ex vivo analysis was performed on normal and cyclophosphamide immunosuppressed animals plus 5Fu-treated animals. Cell immunophenotyping was performed on mouse-treatedblood and spleen. The following cell surface antigens were analyzed:
(§2) CD3 (all T cells), CD4 (T helper/inducer, binds class II-restricted T cells), CD8a (cytotoxic T cells, CTL adhesion), CD11a (T, B, NK, some stem cells, CTL adhesion anti LFA-1α), MAC-1 (monocyte/macrophage), NK (natural killer cells), Ly5 (B cells), CD45 (all leukocytes, protein tyrosine phosphates), and TCR (T cell receptor).
(§3) C57/BLJ6 mice (6-8 weeks old) were injected daily for 4 consecutive days, sacrificed at day 5 and immunophenotyping was performed on blood and spleen cells.
(§4) The cells were washed twice in PBS, resuspended in 1 ml of RPMI 2% FBS, and incubated for 45 min. on ice with monoclonal antibody. The cells were washed once, fixed with 1% paraformaldehyde, then analyzed using XL Coulter® counter.

[3] = test system: spleen cells; test: Immunophenotyping on spleen cells of compound #1 treated mice; type: in vivo, C57/BLJ6 mice; conditions: N = 10
Description: as §1, §2, §3, §4

[4] = test system: spleen cells; test: Immunophenotyping on spleen cells, combination with cyclophosphamide; type: in vivo, C57/BLJ6 mice; conditions: in combination with cyclophosphamide
Description: as §1, §2, §3, §4

[5] = test system: blood cells; test: Immunophenotyping on blood cells, combination with 5 Fluorouracil; type: in vivo, C57/BLJ6 mice; conditions: N = 4
Description: as §1, §2, §3, §4

[6] = test system: DA-3 mammary carcinoma; test: Tumor outgrowth of breast carcinoma, with cyclophosphamide (Example 92); type: in vivo, Balb/C mice
Description: Balb/C Mice (n-5/Gr) were used along with DA-3 mammary carcinoma cell line. The mice were treated from -2 to 13 days. Animals were monitored for tumor takes/tumor size and body weights for three weeks from Day 0 until Day 21. D0 was the day of tumor cell inoculation and D21 was the day of experiment termination.
(§5) Parameters of effect were measured by inhibition of tumor outgrowth and growth rate [tumors measured along the longest axis (length) and the perpendicular shortest axis (width) and the tumor volumes (T.V.±S.E.) was calculated by the formula T.V.=length (cm)×(width cm)^2 /2.] assessment of body weight loss.
The statistical significance of difference between tumor takes and tumor sizes of control-untreated and drug-treated groups is estimated using the Chi-square and Student's t tests respectively with significance determined at n<0.05.
The mice were divided into the following 5 groups:
Gr.1--Normal Saline (0.2 ml/mouse i.p. starting at D2)
Gr.2--CY (100 mg/kg single bolus i.v. at D0)
Gr.3--Compound #1 (25 mg/kg i.p. starting at D2)
Gr.4--Compound #1 (50 mg/kg i.p. starting at D2)
Gr.5--CY (100 mg/kg i.v. at D0+compound #1 50 mg/kg i.p. starting at D2)

[7] = test system: DA-3 mammary carcinoma; test: Compound #1 with Cytoxan 20 mg/kg against established DA-3 mammary carcinoma (Example 93); type: in vivo; conditions: compound #1 25 mg/kg i.p. daily + CTX 20 mg/kg i.v.
Description: (§6) Combination of compound #1 (25 and 50 mg/kg i.p. daily) plus CTX (20 mg/kg i.v. single bolus) was evaluated against day 4 established DA-3 tumors.

[8] = Body weight, compound #1 with Cytoxan 20 mg/kg (Example 93); type: in vivo; conditions: compound #1 + CTX 20 mg/kg
Description: as §6

[9] = test system: DA-3 mammary carcinoma; test: Compound #1 with Cytoxan 28 mg/kg against DA-3 mammary carcinoma, tumor sizes (Example 94); type: in vivo, Balb/c mice; design: key: tumor volume = length × width²/2
Description: as §5
In another experiment, the CTX treatment was prolonged. Balb/c mice were injected s.c. with 5×10^5 DA-3 tumor cells at day 0. At day 4 when established tumors appeared, tumor-bearing animals were randomized (n=11/gr.) and injected with CTX (at 28 mg/kg) i.v. bolus injections at days 4, 11, and 18. […]

CN(C)c1ncnc2c1ncn2CCCCCOC(=O)N[C@H](CCCNC(=N)N)C(=O)O [Compound #1, N,N-Dimethylaminopurinyl Pentoxycarbonyl D-Arginine]
T (ConA) mitogenic proliferation [1]: 2 - 4 × | CD11b+ (mean) ([2]; 25 mg/kg): 13.71 | NK+ CD3+ (mean) ([2]; 25 mg/kg): 5.84 | NK+ CD3- (mean) ([2]; 25 mg/kg): 5.90 | CD8+ CD45+ (mean) ([2]; 25 mg/kg): 10.11 | CD11b+ (mean) ([2]; 50 mg/kg): 9.68 | NK+ CD3+ (mean) ([2]; 50 mg/kg): 3.25 | NK+ CD3- (mean) ([2]; 50 mg/kg): 8.14 | CD8+ CD45+ (mean) ([2]; 50 mg/kg): 8.65 | Ly5 (mean) ([3]; 25 mg/kg): 54.08 | TCR+ (mean) ([3]; 25 mg/kg): 39.78 | Ly5 (mean) ([3]; 50 mg/kg): 50.35 | TCR+ (mean) ([3]; 50 mg/kg): 45.09 | Immunophenotyping, spleen [4]: no effect | CD8+ CD45+ (mean) ([5]; 5 FU + cpd #1 25 mg/kg): 10.11 | NK+ (mean) ([5]; 5 FU + cpd #1 25 mg/kg): 3.58 | CD8+ CD45+ (mean) ([5]; 5 FU + cpd #1 50 mg/kg): 8.65 | NK+ (mean) ([5]; 5 FU + cpd #1 50 mg/kg): 4.12 | Tumor takes ([6]; #1 25 mg/kg, day 4): 2/5 | Tumor takes ([6]; #1 25 mg/kg, day 6): 2/5 | Tumor takes ([6]; #1 25 mg/kg, day 8): 3/5 | Tumor takes ([6]; #1 25 mg/kg, day 10): 4/5 | Tumor takes ([6]; #1 50 mg/kg, day 4): 3/5 | Tumor takes ([6]; #1 50 mg/kg, day 6): 3/5 | Tumor takes ([6]; #1 50 mg/kg, day 8): 3/5 | Tumor takes ([6]; #1 50 mg/kg, day 10): 3/5 | Tumor takes ([6]; CY 100 mg/kg + #1 50 mg/kg, day 4): 4/5 | Tumor takes ([6]; CY 100 mg/kg + #1 50 mg/kg, day 6): 5/5 | Tumor takes ([6]; CY 100 mg/kg + #1 50 mg/kg, day 8): 5/5 | Tumor takes ([6]; CY 100 mg/kg + #1 50 mg/kg, day 10): 5/5 | anti-tumor effect [7]: no significant effect | body weight loss [8]: No significant body weight loss | tumor size ([9]; BCH-1393 50 mg/kg + CTX 28 mg/kg, day 7): 6.5 | tumor size ([9]; BCH-1393 50 mg/kg + CTX 28 mg/kg, day 9): 12.6 | tumor size ([9]; BCH-1393 50 mg/kg + CTX 28 mg/kg, day 11): 20.2 | tumor size ([9]; BCH-1393 50 mg/kg + CTX 28 mg/kg, day 14): 9.5 | tumor size ([9]; BCH-1393 50 mg/kg + CTX 28 mg/kg, day 16): 41.7 | tumor size ([9]; BCH-1393 50 mg/kg + CTX 28 mg/kg, day 18): 44.9 | tumor size ([9]; BCH-1393 50 mg/kg + CTX 28 mg/kg, day 21): 63.4 | tumor size ([9]; BCH-1393 50 mg/kg + CTX 28 mg/kg, day 23): 69.6 | tumor size ([9]; BCH-1393 50 mg/kg + CTX 28 mg/kg, day 25): 95.4 | tumor size ([9]; BCH-1393 50 mg/kg + CTX 28 mg/kg, day 28): 104.2 | tumor size ([9]; BCH-1393 50 mg/kg + CTX 28 mg/kg, day 30): 115.8 | tumor size ([9]; BCH-1393 50 mg/kg Ip (Days 3-28) + CTX 28 mg/kg Iv (days 4, 11, 18), day 4): 3.6 | tumor size ([9]; single agent (CTX 28 mg/kg days 4, 11, 18, or BCH-1393 50 mg/kg days 3-28), day 4): 2.7 | tumor size ([9]; single agent (CTX 28 mg/kg or BCH-1393 50 mg/kg), day 7): 10.2 | tumor size ([9]; single agent (CTX 28 mg/kg or BCH-1393 50 mg/kg), day 9): 18.1 | tumor size ([9]; single agent (CTX 28 mg/kg or BCH-1393 50 mg/kg), day 11): 29.2 | tumor size ([9]; single agent (CTX 28 mg/kg or BCH-1393 50 mg/kg), day 14): 50.1 | tumor size ([9]; single agent (CTX 28 mg/kg or BCH-1393 50 mg/kg), day 16): 58.5 | tumor size ([9]; single agent (CTX 28 mg/kg or BCH-1393 50 mg/kg), day 18): 66.3 | tumor size ([9]; single agent (CTX 28 mg/kg or BCH-1393 50 mg/kg), day 21): 94.2 | tumor size ([9]; single agent (CTX 28 mg/kg or BCH-1393 50 mg/kg), day 23): 131.4 | tumor size ([9]; single agent (CTX 28 mg/kg or BCH-1393 50 mg/kg), day 25): 130.9 | tumor size ([9]; single agent (CTX 28 mg/kg or BCH-1393 50 mg/kg), day 28): 152.5 | tumor size ([9]; single agent (CTX 28 mg/kg or BCH-1393 50 mg/kg), day 30): 187.2
